Data reported in patent US20260138957A1, “UREA-LINKED 2-AMINOIMIDAZOLE DIMER POTENTIATORS” (UNIVERSITY OF NOTRE DAME DU LAC, priority 2022, published 2026).

How the values were obtained:
[1] = system: A. baumannii strain 5075 (AB5075); assay: Standalone MIC against AB5075 (compound or antibiotic alone); format: cell-based, Acinetobacter baumannii; design: MIC against AB5075 (inherent anti-bacterial activity): unit not given beside the values; settings: compound alone; for MIC against AB5075 (inherent anti-bacterial activity): newly synthesized material; for MIC: Acinetobacter baumannii, AB5075
Description: Dimers were first analyzed for standalone toxicity against AB5075.

[2] = system: A. baumannii strain 5075 (AB5075); assay: Clarithromycin potentiation against AB5075 (CLR MIC in presence of adjuvant); format: cell-based, Acinetobacter baumannii; settings: for CLR potentiation activity (in words): AB5075, 30 μM
[3] = system: AB 5075; assay: Colistin MIC in absence or presence of compounds against AB 5075; format: cell-based, Acinetobacter baumannii; settings: adjuvant at 30 μM, AB5075
Description: However, dropping LOS comes with fitness costs such as reduced growth rates, lower virulence, and increased sensitivity towards certain antibiotics.

[4] = system: AB5075; assay: Potentiation of azithromycin, erythromycin and rifampin against AB5075; format: cell-based, Acinetobacter baumannii; settings: for activity in combination with AZM, ERM and RIF (in words): AB5075, adjuvant at ≤30% their MIC; for fold decrease of RIF MIC: AB5075, adjuvant at 10 μM
[5] = Microsomal (metabolic) stability; format: in vitro ADME; settings: 60 minutes
[6] = Plasma stability; format: in vitro ADME; settings: 4 hours
[7] = system: panel of A. baumannii isolates; assay: CLR potentiation against panel of A. baumannii isolates; format: cell-based, Acinetobacter baumannii; settings: 25 AB strains, adjuvant at 10 μM (4.8 μg/mL) or less
[8] = system: panel of A. baumannii isolates; assay: Standalone MIC/toxicity against panel of A. baumannii isolates; format: cell-based, Acinetobacter baumannii
[9] = system: K. pneumoniae 2146; assay: Combination with RIF against K. pneumoniae 2146; format: cell-based, Klebsiella pneumoniae; settings: K. pneumoniae 2146, compared with the parent dimers
[10] = system: A. baumannii; assay: CLR adjuvant activity with exogenous LOS added to the media; format: cell-based, Acinetobacter baumannii; settings: LOS from AB5075 at 0.2 mg/mL or 0.5 mg/mL
Experimental: First, we examined the impact that addition of MgCl2 had on activity. Divalent cations, such as Mg^2+, are known to stabilize the outer membrane of gram-negative bacteria and the activity of membrane disruptors are known to be muted/abrogated by the addition of such cations. When the media was supplemented with MgCl2 (20 mM final concentration), activity was essentially abolished. As suppression of activity could conceivably originate from either blocking the compound's mechanism of action or simply making the membrane more impermeable that leads to the inability of the compound to penetrate the outer membrane, we next studied the impact that the addition of exogenous LOS had upon activity.

[11] = system: HepG2 cells; assay: Cytotoxicity, XTT assay with HepG2 cells; settings: mammalian cell toxicity

Compound | Clarithromycin (CLR) MIC ([2]; adjuvant at 7.5 μM, AB5075) | Fold Reduction of CLR MIC ([2]; adjuvant at 7.5 μM, AB5075) | Clarithromycin (CLR) MIC ([2]; adjuvant at 10 μM, AB5075) | Fold Reduction of CLR MIC ([2]; adjuvant at 10 μM, AB5075) | Clarithromycin (CLR) MIC ([2]; adjuvant at 20 μM, AB5075) | Fold Reduction of CLR MIC ([2]; adjuvant at 20 μM, AB5075) | Clarithromycin (CLR) MIC ([2]; adjuvant at 30 μM, AB5075) | Fold Reduction of CLR MIC ([2]; adjuvant at 30 μM, AB5075) | MIC [1] | also measured
Nc1nc(-c2ccc(NC(=O)Nc3ccc(-c4c[nH]c(N)n4)c(F)c3)cc2F)c[nH]1 [Compound 9a] | 0.5 µg/mL | 64 fold | 0.125 µg/mL | 256 fold | 0.0625 µg/mL | 512 fold | 0.03125 µg/mL | 1024 fold | > 200 µM | Clarithromycin (CLR) MIC ([2]; adjuvant at 5 μM, AB5075): 2 µg/mL; Fold Reduction of CLR MIC ([2]; adjuvant at 5 μM, AB5075): 16 fold; lowering of CLR MIC values [7]: at least four-fold; toxicity of compound alone (in words) [8]: no toxicity; fold decrease of RIF MIC [4]: 32 fold; activity in combination with AZM, ERM and RIF (in words) [4]: significant activity; potentiation of RIF (in words) [9]: greater potentiation activity at lower concentrations; CLR adjuvant activity with exogenous LOS (in words) [10]: no loss of adjuvant activity; microsomal stability (in words) [5]: steady concentration over 60 minutes; plasma stability (in words) [6]: steady concentration over 4 hours
Nc1nc(-c2cc(NC(=O)Nc3ccc(F)c(-c4c[nH]c(N)n4)c3)ccc2F)c[nH]1 [Compound 9b] | 1 µg/mL | 32 fold | 0.5 µg/mL | 64 fold | 0.25 µg/mL | 128 fold | 0.125 µg/mL | 256 fold | > 200 µM | Clarithromycin (CLR) MIC ([2]; adjuvant at 5 μM, AB5075): 2 µg/mL; Fold Reduction of CLR MIC ([2]; adjuvant at 5 μM, AB5075): 16 fold
COc1cc(-c2c[nH]c(N)n2)ccc1NC(=O)Nc1ccc(-c2c[nH]c(N)n2)cc1OC [Compound 9d] | – | – | – | – | – | – | 8 µg/mL | 4 fold | 200 µM | CLR potentiation activity (in words) [2]: abolished all activity
Nc1nc(-c2ccc(F)c(NC(=O)Nc3cc(-c4c[nH]c(N)n4)ccc3F)c2)c[nH]1 [Compound 9e] | – | – | – | – | – | – | 32 µg/mL | 1 fold | > 200 µM | –
Nc1nc(-c2cccc(NC(=O)Nc3cccc(-c4c[nH]c(N)n4)c3F)c2F)c[nH]1 [Compound 9f] | 2 µg/mL | 16 fold | 1 µg/mL | 32 fold | 0.5 µg/mL | 64 fold | 0.25 µg/mL | 128 fold | > 200 µM | –
Nc1nc(-c2cc(F)cc(NC(=O)Nc3cc(F)cc(-c4c[nH]c(N)n4)c3)c2)c[nH]1 [Compound 9g] | 0.25 µg/mL | 128 fold | 0.125 µg/mL | 256 fold | 0.0625 µg/mL | 512 fold | ≤0.0625 µg/mL | – | > 200 µM | CLR MIC ([2]; adjuvant at 2.5 μM, AB5075): 1 µg/mL; Fold Reduction of CLR MIC ([2]; adjuvant at 2.5 μM, AB5075): 32 fold; Clarithromycin (CLR) MIC ([2]; adjuvant at 5 μM, AB5075): 0.5 µg/mL; Fold Reduction of CLR MIC ([2]; adjuvant at 5 μM, AB5075): 64 fold; lowering of CLR MIC values [7]: at least four-fold; toxicity of compound alone (in words) [8]: no toxicity; fold decrease of RIF MIC [4]: 32 fold; activity in combination with AZM, ERM and RIF (in words) [4]: significant activity; potentiation of RIF (in words) [9]: greater potentiation activity at lower concentrations; IC50, HepG2 cells [11]: > 256 µg/mL; IC50 ([11]; read-out: IC50, HepG2 cells): > 530 µM
Nc1nc(-c2ccc(NC(=O)Nc3ccc(F)c(-c4c[nH]c(N)n4)c3)cc2F)c[nH]1 [Compound 9h] | – | – | – | – | 4 µg/mL | 8 fold | 0.5 µg/mL | 64 fold | > 200 µM | –
Nc1nc(-c2ccc(F)c(NC(=O)Nc3ccc(-c4c[nH]c(N)n4)c(F)c3)c2)c[nH]1 [Compound 9i] | – | – | – | – | – | – | 8 µg/mL | 4 fold | > 200 µM | –
Nc1nc(-c2cc(F)cc(NC(=O)Nc3ccc(-c4c[nH]c(N)n4)c(F)c3)c2)c[nH]1 [Compound 9j] | 0.25 µg/mL | 128 fold | 0.125 µg/mL | 256 fold | 0.125 µg/mL | 256 fold | 0.0625 µg/mL | 512 fold | > 200 µM | Clarithromycin (CLR) MIC ([2]; adjuvant at 5 μM, AB5075): 1 µg/mL; Fold Reduction of CLR MIC ([2]; adjuvant at 5 μM, AB5075): 32 fold
Nc1nc(-c2cccc(NC(=O)Nc3cc(F)cc(-c4c[nH]c(N)n4)c3)c2)c[nH]1 [Compound 9l] | 1 µg/mL | 32 fold | 0.5 µg/mL | 64 fold | 0.0625 µg/mL | 512 fold | 0.0625 µg/mL | 512 fold | > 200 µM | –
Nc1nc(-c2ccc(NC(=O)Nc3ccc(-c4c[nH]c(N)n4)cc3F)c(F)c2)c[nH]1 [Compound 14a] | – | – | – | – | – | – | 4 µg/mL | 8 fold | > 200 µM | –
Nc1nc(-c2ccc(NC(=O)Nc3ccc(-c4c[nH]c(N)n4)c(Cl)c3)cc2Cl)c[nH]1 [Compound 14b] | – | – | – | – | – | – | 32 µg/mL | 1 fold | > 200 µM | CLR potentiation activity (in words) [2]: abolished all activity

More lines, main results first:

Clarithromycin (CLR) MIC ([2]; adjuvant at 7.5 μM, AB5075) | Fold Reduction of CLR MIC ([2]; adjuvant at 7.5 μM, AB5075) | Clarithromycin (CLR) MIC ([2]; adjuvant at 10 μM, AB5075) | Fold Reduction of CLR MIC ([2]; adjuvant at 10 μM, AB5075) | Clarithromycin (CLR) MIC ([2]; adjuvant at 20 μM, AB5075) | Fold Reduction of CLR MIC ([2]; adjuvant at 20 μM, AB5075) | Clarithromycin (CLR) MIC ([2]; adjuvant at 30 μM, AB5075) | Fold Reduction of CLR MIC ([2]; adjuvant at 30 μM, AB5075) | MIC [1] | Compound | also measured
8 µg/mL | 4 fold | 4 µg/mL | 8 fold | 0.5 µg/mL | 64 fold | 0.125 µg/mL | 256 fold | – | Nc1nc(-c2ccc(NC(=O)Nc3ccc(-c4c[nH]c(N)n4)cc3)cc2)c[nH]1 [Compound 3] | MIC against AB5075 (inherent anti-bacterial activity) [1]: > 200; Colistin MIC [3]: 2 µg/mL; activity in combination with AZM, ERM and RIF (in words) [4]: significant activity
– | – | 16 µg/mL | 2 fold | 1 µg/mL | 32 fold | 0.125 µg/mL | 256 fold | – | Nc1nc(-c2ccc(NC(=O)Nc3cccc(-c4c[nH]c(N)n4)c3)cc2)c[nH]1 [Compound 4] | MIC ([1]; value in brackets): > 447 µg/mL; MIC against AB5075 (inherent anti-bacterial activity) [1]: > 200; Colistin MIC [3]: 0.25 µg/mL; activity in combination with AZM, ERM and RIF (in words) [4]: significant activity
1 µg/mL | 32 fold | 0.5 µg/mL | 64 fold | 0.0625 µg/mL | 512 fold | 0.03125 µg/mL | 1024 fold | – | Nc1nc(-c2cccc(NC(=O)Nc3cccc(-c4c[nH]c(N)n4)c3)c2)c[nH]1 [Compound 5] | MIC ([1]; value in brackets): 447 µg/mL; MIC against AB5075 (inherent anti-bacterial activity) [1]: 200; Clarithromycin (CLR) MIC ([2]; adjuvant at 5 μM, AB5075): 4 µg/mL; Fold Reduction of CLR MIC ([2]; adjuvant at 5 μM, AB5075): 8 fold; Colistin MIC [3]: 2 µg/mL; activity in combination with AZM, ERM and RIF (in words) [4]: significant activity; microsomal stability (in words) [5]: steady concentration over 60 minutes; plasma stability (in words) [6]: steady concentration over 4 hours
– | – | – | – | – | – | 2 µg/mL | 16 fold | > 200 µM | Nc1nc(-c2ccc(NC(=O)Nc3ccc(-c4c[nH]c(N)n4)c(C(F)(F)F)c3)cc2C(F)(F)F)c[nH]1 [Compound 9c] | CLR potentiation activity (in words) [2]: abolished all activity
2 µg/mL | 16 fold | 1 µg/mL | 32 fold | 0.5 µg/mL | 64 fold | 0.0625 µg/mL | 512 fold | > 200 µM | Nc1nc(-c2ccc(NC(=O)Nc3ccc(-c4c[nH]c(N)n4)c(F)c3)cc2)c[nH]1 [Compound 9m] | –
– | – | – | – | – | – | 32 µg/mL | 1 fold | > 200 µM | Cc1cc(-c2c[nH]c(N)n2)ccc1NC(=O)Nc1ccc(-c2c[nH]c(N)n2)cc1C [Compound 14c] | CLR potentiation activity (in words) [2]: abolished all activity
